Source: ChEMBL document CHEMBL1137914, “Optimizing the antibacterial activity of a lead structure discovered by "SAR by MS" technology” (Bioorg Med Chem Lett, 2004)

Legend:
[1] = system: Escherichia coli; assay: (§1) In vitro dissociation constant of compound required for inhibition of Escherichia coli translation was determined; type: functional, organism-based
[2] = system: Staphylococcus aureus; assay: Antibacterial activity against Staphylococcus aureus was determined at 100 uM; type: functional
[3] = system: Escherichia coli; assay: Antibacterial activity against Escherichia coli was determined at 100 uM; type: functional
[4] = system: Streptococcus pyogenes; assay: Minimal inhibitory concentration required against Streptococcus pyogenes was determined; values ranges from 3-6
[5] = system: Escherichia coli; assay: Minimal inhibitory concentration required against Escherichia coli ATCC 25922 was determined; values ranges from 6-13; type: functional
[6] = system: Proteus vulgaris; assay: Minimal inhibitory concentration required against Proteus vulgaris was determined; values ranges from 50-100
[7] = system: Enterococcus faecalis; assay: Minimal inhibitory concentration required against Enterococcus faecalis was determined; values ranges from 3-6
[8] = system: Staphylococcus aureus; assay: Minimal inhibitory concentration required against Staphylococcus aureus ATCC 13709 was determined; values ranges from 3-6; type: functional
[9] = system: Staphylococcus aureus; assay: Minimal inhibitory concentration required against Staphylococcus aureus ATCC 13709 was determined; values ranges from […]; type: functional
[10] = system: Escherichia coli; assay: as §1; type: functional
[11] = system: Escherichia coli; assay: Minimal inhibitory concentration required against Escherichia coli ATCC 25922 was determined; values ranges from 13-25; type: functional
[12] = system: Staphylococcus aureus; assay: Minimal inhibitory concentration required against Staphylococcus aureus ATCC 13709 was determined; type: functional
[13] = system: Escherichia coli; assay: In vitro dissociation constant of compound required for inhibition of Escherichia coli translation by 50% was determined; type: functional
[14] = system: Staphylococcus aureus; assay: Minimal inhibitory concentration required against Staphylococcus aureus ATCC 13709 was determined; values ranges from 50-100; type: functional
[15] = system: Escherichia coli; assay: Minimal inhibitory concentration required against Escherichia coli ATCC 25922 was determined; values ranges from 25-50; type: functional

| SMILES | IC50 [1] [µM] | inhibition at 100 µM [2] [%] | inhibition at 100 µM [3] [%] | further results |
| --- | --- | --- | --- | --- |
| CN(C)CCCOc1ccc(C(NC(=O)c2ccc(-c3cccc(NC(=O)c4ccc5nc(O)c(O)nc5c4)c3)o2)C(N)=O)cc1 (configuration not stated) | 10 | < 75 | < 75 |  |
| CN(C)CCCOc1ccc(C(NC(=O)c2ccc(-c3cccc(NC(=O)CCCN(C)C)c3)o2)C(=O)N2CCNCC2)cc1 (configuration not stated) | > 100 | < 75 | < 75 |  |
| CN(C)CCCOc1ccc(C(NC(=O)c2ccc(-c3cccc(NC(=O)c4ccc(-c5ccccc5)cc4)c3)o2)C(=O)N2CCNCC2)cc1 (configuration not stated) | 9 |  |  | MIC [4]: < 6 µM; MIC [5]: < 13 µM; MIC [6]: < 100 µM; MIC [7]: < 6 µM; MIC [8]: < 6 µM |
| NCC[C@@H](NC(=O)c1ccc(-c2cccc(N)c2)o1)C(=O)N1CCNCC1 | > 100 | < 75 | < 75 |  |
| C=CCNC(=O)c1ccc2nc(O)c(O)nc2c1 |  |  |  | Kd [10]: 150 µM |
| CN(C)CCCOc1ccc(C(NC(=O)c2ccc(-c3cccc(N)c3)o2)C(=O)N2CCNCC2)cc1 (configuration not stated) | > 100 | < 75 | < 75 |  |
| CN(C)CCCOc1ccc(C(NC(=O)c2ccc(-c3cccc(NS(=O)(=O)c4ccc5nc(O)c(O)nc5c4)c3)o2)C(=O)N2CCNCC2)cc1 (configuration not stated) | 33 | < 75 | < 75 |  |
| CN(C)CCCC(=O)Nc1cccc(-c2ccc(C(=O)N[C@H](CCN)C(=O)N3CCNCC3)o2)c1 | > 100 | < 75 | < 75 |  |
| Cc1nc2ccc(C(=O)Nc3cccc(-c4ccc(C(=O)NC(C(=O)N5CCNCC5)c5ccc(OCCCN(C)C)cc5)o4)c3)cc2nc1C (configuration not stated) | 1 | < 75 | < 75 |  |
| NCC[C@@H](NC(=O)c1ccc(-c2ccccc2)o1)C(=O)N1CCNCC1 |  |  |  | Kd [10]: 50 µM |
| CN(C)CCCOc1ccc(C(NC(=O)c2ccc(-c3cccc(NC(=O)c4ccc5nc(O)c(O)nc5c4)c3)o2)C(=O)N2CCNCC2)cc1 (configuration not stated) | 3 | < 75 | < 75 |  |
| CN(C)CCCOc1ccc(C(NC(=O)c2ccc(-c3cccc(NC(=O)C4CCCCC4)c3)o2)C(=O)N2CCNCC2)cc1 (configuration not stated) | > 100 | < 75 | < 75 |  |
| NCC[C@@H](NC(=O)c1ccc(-c2cccc(NC(=O)c3cnc4ccccc4c3)c2)o1)C(=O)N1CCNCC1 | 46 | < 75 | < 75 |  |
| CCc1c(C)nc2ccc(C(=O)Nc3cccc(-c4ccc(C(=O)NC(C(=O)N5CCNCC5)c5ccc(OCCCN(C)C)cc5)o4)c3)cc2c1Cl (configuration not stated) | 0.78 |  |  | MIC [11]: < 25 µM; MIC [12]: > 100 µM |
| NCC[C@@H](NC(=O)c1ccc(-c2cccc(NC(=O)c3nncs3)c2)o1)C(=O)N1CCNCC1 | > 100 | < 75 | < 75 |  |
| NCC[C@@H](NC(=O)c1ccc(-c2cccc(NC(=O)c3ccc4nc(O)c(O)nc4c3)c2)o1)C(=O)N1CCNCC1 | 14 | < 75 | < 75 | Kd [13]: 6.5 µM |
| CN(C)CCCOc1ccc(C(NC(=O)c2ccc3nc(O)c(O)nc3c2)C(=O)N2CCNCC2)cc1 (configuration not stated) | > 200 | < 75 | < 75 |  |
| NCC[C@@H](NC(=O)c1ccc(-c2cccc(NC(=O)c3ccccn3)c2)o1)C(=O)N1CCNCC1 | > 100 | < 75 | < 75 |  |
| NCC[C@@H](NC(=O)c1ccc(-c2cccc(NC(=O)c3cnccn3)c2)o1)C(=O)N1CCNCC1 | > 100 | < 75 | < 75 |  |
| NCC[C@@H](NC(=O)c1ccc(-c2cccc(NS(=O)(=O)c3ccc4nc(O)c(O)nc4c3)c2)o1)C(=O)N1CCNCC1 | > 100 | < 75 | < 75 |  |
| Cc1nc2ccc(C(=O)Nc3cccc(-c4ccc(C(=O)N[C@H](CCN)C(=O)N5CCNCC5)o4)c3)cc2nc1C | 15 | < 75 | < 75 |  |

Second part, led by results:

| IC50 [1] [µM] | SMILES | inhibition at 100 µM [2] [%] | inhibition at 100 µM [3] [%] | further results |
| --- | --- | --- | --- | --- |
| 13 | CN(C)CCCOc1ccc(C(NC(=O)c2ccc(-c3cccc(NC(=O)c4nncs4)c3)o2)C(=O)N2CCNCC2)cc1 (configuration not stated) | < 75 | < 75 |  |
| 15 | CN(C)CCCOc1ccc(C(NC(=O)c2ccc(-c3cccc(NC(=O)c4cnccn4)c3)o2)C(=O)N2CCNCC2)cc1 (configuration not stated) | < 75 | < 75 |  |
| 2 | Cc1cc(Cl)c2cc(C(=O)Nc3cccc(-c4ccc(C(=O)NC(C(=O)N5CCNCC5)c5ccc(OCCCN(C)C)cc5)o4)c3)ccc2n1 (configuration not stated) | < 75 | < 75 |  |
| 5 | CN(C)CCCOc1ccc(C(NC(=O)c2ccc(-c3cccc(NC(=O)c4cnc5ccccc5c4)c3)o2)C(=O)N2CCNCC2)cc1 (configuration not stated) | < 75 | < 75 |  |
| 5 | CN(C)CCCOc1ccc(C(NC(=O)c2ccc(-c3cccc(NC(=O)c4ccc(Br)cc4)c3)o2)C(=O)N2CCNCC2)cc1 (configuration not stated) |  |  | MIC [5]: < 13 µM; MIC [9]: < 25 µM |
| 38 | CN(C)CCCOc1ccc(C(NC(=O)c2ccc(-c3cccc(NC(=O)c4ccccc4I)c3)o2)C(=O)N2CCNCC2)cc1 (configuration not stated) | < 75 | < 75 |  |
| > 100 | CC(=O)Nc1cccc(-c2ccc(C(=O)NC(C(=O)N3CCNCC3)c3ccc(OCCCN(C)C)cc3)o2)c1 (configuration not stated) | < 75 | < 75 |  |
| 6 | CN(C)CCCOc1ccc(C(NC(=O)c2ccc(-c3cccc(NC(=O)c4ccc5ncccc5c4)c3)o2)C(=O)N2CCNCC2)cc1 (configuration not stated) | < 75 | < 75 |  |
| 20 | CN(C)CCCOc1ccc(C(NC(=O)c2ccc(-c3cccc(NC(=O)c4ccccn4)c3)o2)C(=O)N2CCNCC2)cc1 (configuration not stated) | < 75 | < 75 |  |
| 4 | CN(C)CCCOc1ccc(C(NC(=O)c2ccc(-c3cccc(NC(=O)c4ccc(Cl)c(Cl)c4)c3)o2)C(=O)N2CCNCC2)cc1 (configuration not stated) | < 75 | < 75 |  |
| 40 | CN(C)CCCOc1ccc(C(NC(=O)c2ccc(-c3cccc(NC(=O)c4ccccc4)c3)o2)C(=O)N2CCNCC2)cc1 (configuration not stated) | < 75 | < 75 |  |
| 10 | CN(C)CCCOc1ccc(C(NC(=O)c2ccc(-c3cccc(NC(=O)c4ccc5ccccc5c4)c3)o2)C(=O)N2CCNCC2)cc1 (configuration not stated) |  |  | MIC [14]: < 100 µM; MIC [15]: < 50 µM |
| 5 | CN(C)CCCOc1ccc(C(NC(=O)c2ccc(-c3cccc(NC(=O)c4ccc5cc(Br)ccc5c4)c3)o2)C(=O)N2CCNCC2)cc1 (configuration not stated) |  |  | MIC [5]: < 13 µM; MIC [9]: < 25 µM |
